# Measured values reported in patent publication US20210069213A1, “COMPOSITION AND METHOD OF TREATMENT FOR DRY A.M.D. (AGE RELATED MACULAR DEGENERATION)” (EYE CO PTY LTD, priority 2018, published 2021).
# Like-named read-outs stand apart in the source and are kept apart here.
# Experiments:
# [1] = test system: New Zealand albino rabbits; conditions: cited from earlier work; for ERG change in the other groups: intravitreal 2 mg, 1 mg, 400 μg/0.1 ml; for ERG change in the other groups / ERG change: two weeks after injection; for intravitreal (vitreous) haemorrhage: intravitreal 4 mg/0.1 mL; for ERG change: intravitreal 4 mg/0.1 ml
# [2] = test system: subject with bi-lateral GA; assay: Phase Ib study of intravitreal FA in patients with geographic atrophy; format: in vivo, human; conditions: single subject, 1 mg intravitreal
# Experimental: A. Phase Ib, Study of Safety and Tolerability of Intravitreal Fludrocortisone Acetate (FA) and Triamcinolone (TA) in Patients with Geographic Atrophy (GA)
# The identical protocol will be followed with TA.
# Part 1 involves a single participant to assess safety and tolerability of 1 mg/0.1 mL FA. This participant will be followed for up to 28 days and reviewed by a safety review committee prior to the recruitment of a further 2 participants treated with 1 mg/0.1 mL FA totalling in 3 participants in the first cohort.
# Visit 2 (Baseline)—All subjects: Unless specified, all ophthalmic procedures (including imaging) are to be performed on the Study eye only. 1. Verify that all inclusion/exclusion criteria are met, including the determination of eligibility by the PI. 2. Obtain information on any changes in medical health and/or the use of concomitant medications. 3. Collect vital signs pre- and post-dose. Vital signs will be measured within 1 hour prior to dosing for the pre-dose time point. Post-dose vital signs readings will be performed within 30 minutes after dosing. 4. Perform BCVA. 5. Perform LL-BCVA. 6. Perform a complete ophthalmic exam including slit-lamp exam of the cornea, iris, anterior chamber, lens (LOCS III if any opacity on the lens noted) and aqueous reaction (cells and flare), dilated fundus exam of the vitreous and retina and IOP measurement. 7. Perform the IVT injection of fludrocortisone acetate. 8. Monitor the study eye within 15 minutes' post injection. 9. Monitor for adverse events.
# FIGS. 2 to 6 show the results of injection of fludrocortisone into one subject according to the Phase lb study.
# [3] = test system: New Zealand albino rabbits; assay: Intravitreal toxicology of fludrocortisone acetate in rabbit eyes; format: in vivo; conditions: based on vitreous volume, man 4 mL vs rabbit 1.5 mL
# From the text: The eyes were enucleated and examined with light microscopy.
# Investigative Ophthalmology & Visual Science, 2006. 47(13): p. 4281-4281 ]. […] Their eyes were enucleated and examined with light microscopy.
# [4] = molecular target: T1, mineralocorticoid receptor (Homo sapiens, UniProt P08235); conditions: Table 1; hydrocortisone (cortisol) = 1; cited from earlier work
# T1 sequence (P08235 1-984): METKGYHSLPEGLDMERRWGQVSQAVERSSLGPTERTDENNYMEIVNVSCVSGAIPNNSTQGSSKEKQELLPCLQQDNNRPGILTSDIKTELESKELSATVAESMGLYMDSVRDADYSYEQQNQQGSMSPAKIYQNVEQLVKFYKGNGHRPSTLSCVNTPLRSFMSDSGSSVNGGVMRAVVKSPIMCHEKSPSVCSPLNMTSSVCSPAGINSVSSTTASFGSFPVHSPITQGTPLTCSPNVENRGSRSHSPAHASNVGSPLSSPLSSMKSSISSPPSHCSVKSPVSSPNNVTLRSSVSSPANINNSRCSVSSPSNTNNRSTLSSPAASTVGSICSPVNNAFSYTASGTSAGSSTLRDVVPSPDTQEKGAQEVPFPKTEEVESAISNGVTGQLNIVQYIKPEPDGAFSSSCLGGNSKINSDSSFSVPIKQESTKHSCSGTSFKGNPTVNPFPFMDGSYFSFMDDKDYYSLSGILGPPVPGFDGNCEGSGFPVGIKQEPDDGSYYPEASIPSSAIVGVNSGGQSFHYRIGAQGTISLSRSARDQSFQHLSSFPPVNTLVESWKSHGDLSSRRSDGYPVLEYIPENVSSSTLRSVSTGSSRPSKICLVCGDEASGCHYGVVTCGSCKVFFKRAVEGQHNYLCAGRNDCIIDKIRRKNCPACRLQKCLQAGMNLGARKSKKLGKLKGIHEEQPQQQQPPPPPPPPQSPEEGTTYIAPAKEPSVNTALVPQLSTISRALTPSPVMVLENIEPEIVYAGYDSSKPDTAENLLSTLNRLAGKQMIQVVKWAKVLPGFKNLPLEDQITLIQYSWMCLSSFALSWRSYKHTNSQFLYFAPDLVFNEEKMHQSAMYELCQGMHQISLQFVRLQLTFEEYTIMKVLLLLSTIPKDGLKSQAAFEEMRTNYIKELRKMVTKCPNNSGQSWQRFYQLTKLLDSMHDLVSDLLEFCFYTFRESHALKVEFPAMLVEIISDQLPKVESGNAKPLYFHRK
# [5] = test system: monkey choroidal endothelial cells (CECs); conditions: PMA-stimulated CECs; FA compared with TA; cited from earlier work
# [6] = test system: light-damage model of dry AMD; assay: Light-damage model of dry AMD in mice; format: in vivo
# [7] = FA delivered in Kenalog vehicle, 7 days later
compound,measurement,setting,value
"CC(=O)OCC(=O)[C@@]1(O)CC[C@H]2[C@@H]3CCC4=CC(=O)CC[C@]4(C)[C@@]3(F)[C@@H](O)C[C@@]21C [Fludrocortisone acetate, 9-α-Fiuoro-11 β. 17 α, 21-trihydroxy-4-pregnene-3, 20 dione acetate]",histological examination of retinal sections (light microscopy),[1]; 400 μg to 4 mg per eye,no evidence of toxicity or vacuolization except for one eye in the 4mg group
same,time by which all aggregates disappeared from the vitreous,[1]; 2-mg group,22 ± 8 days
same,time by which all aggregates disappeared from the vitreous,[1]; 4-mg group,33 ± 7 days
same,IOP,[1]; all groups,normal
same,ERG change in the other groups,[1],normal ERG
same,ERG change in the other groups,[1]; listed as FA,no other problems of reductions in ERG
same,intravitreal (vitreous) haemorrhage,[1],1
same,intravitreal (vitreous) haemorrhage,[1]; listed as FA,Two eyes at 4 mg/0.1 ml experienced intravitreal haemorrhage
same,ERG change,[1],one eye injected with 4 mg/0.1 ml exhibited decreases in ERG output
same,ERG change,[1]; listed as FA,reduced ERG
same,"signs of retinal toxicity on slit-lamp examination, indirect ophthalmoscopy, or light microscopy","[1]; rabbit, in vivo",no signs of retinal toxicity
same,tolerability in animal toxicology studies,"[1]; rabbit, in vivo",well-tolerated
same,"inflammation in anterior or posterior segment (slit lamp biomicroscopy, indirect ophthalmoscopy)","[1]; up to 40 days of observations, all treatment groups",did not show any evidence of significant inflammation
same,external eye exam,[2],all normal
same,slit lamp biomicroscopy,[2],"all normal, apart from a previous scar on the anterior chamber"
same,vitreous haze grading,[2],absent
same,toxicity,"[2]; left eye, day 28",no evidence of toxicity
same,visual acuity (VA),"[2]; left eye, day 28",improved visual acuity
same,human equivalent dose,[3],67 mg/eye every 4 weeks
same,MR potency,[4],200
same,restoring quiescent morphology,[5],superior to TA
same,cell death,[6]; [7],significantly less cell death
same,macrophages that carry the IBA1 marker,[6]; [7],significantly fewer macrophages
same,Electroretinogram A-wave (Photoreceptor function) and B-wave (inner retinal function),[6]; FA-treated animals,significantly more robust
same,outer nuclear layer thickness (histology),[6]; FA-treated animals,much thicker outer nuclear layer
